Experimental findings from US8178570B2, “Tie-2 modulators and methods of use” (Exelixis, Inc., priority 2003, dated 2012) are described below.

The term IC50 denotes the concentration that inhibits the measured activity by half. Lower therefore signals greater potency.

In the assay the target is Tie-2 (Homo sapiens, UniProt Q02763). As to the kind of experiment: Tie-2 tyrosine kinase activity: kinase-dependent ATP consumption (pEY substrate, luciferase/luciferin chemiluminescence) or 33P-ATP incorporation into substrate. It is filed as biochemical. Conditions: Tie-2 (human enzyme) inhibition, Table 2, class symbols A-D. The essentials: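 Tie-2 kinase activity is read either as ATP consumption with pEY substrate by luciferase/luciferin chemiluminescence, or as 33P incorporation from 33P-ATP into plate-adsorbed substrate by scintillation counting. IC50 values are binned as A <50 nM, B >50–1000 nM, C >1000–<10,000 nM, and D ≥10,000 nM.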
Tie-2, sequence (Q02763 23-1124): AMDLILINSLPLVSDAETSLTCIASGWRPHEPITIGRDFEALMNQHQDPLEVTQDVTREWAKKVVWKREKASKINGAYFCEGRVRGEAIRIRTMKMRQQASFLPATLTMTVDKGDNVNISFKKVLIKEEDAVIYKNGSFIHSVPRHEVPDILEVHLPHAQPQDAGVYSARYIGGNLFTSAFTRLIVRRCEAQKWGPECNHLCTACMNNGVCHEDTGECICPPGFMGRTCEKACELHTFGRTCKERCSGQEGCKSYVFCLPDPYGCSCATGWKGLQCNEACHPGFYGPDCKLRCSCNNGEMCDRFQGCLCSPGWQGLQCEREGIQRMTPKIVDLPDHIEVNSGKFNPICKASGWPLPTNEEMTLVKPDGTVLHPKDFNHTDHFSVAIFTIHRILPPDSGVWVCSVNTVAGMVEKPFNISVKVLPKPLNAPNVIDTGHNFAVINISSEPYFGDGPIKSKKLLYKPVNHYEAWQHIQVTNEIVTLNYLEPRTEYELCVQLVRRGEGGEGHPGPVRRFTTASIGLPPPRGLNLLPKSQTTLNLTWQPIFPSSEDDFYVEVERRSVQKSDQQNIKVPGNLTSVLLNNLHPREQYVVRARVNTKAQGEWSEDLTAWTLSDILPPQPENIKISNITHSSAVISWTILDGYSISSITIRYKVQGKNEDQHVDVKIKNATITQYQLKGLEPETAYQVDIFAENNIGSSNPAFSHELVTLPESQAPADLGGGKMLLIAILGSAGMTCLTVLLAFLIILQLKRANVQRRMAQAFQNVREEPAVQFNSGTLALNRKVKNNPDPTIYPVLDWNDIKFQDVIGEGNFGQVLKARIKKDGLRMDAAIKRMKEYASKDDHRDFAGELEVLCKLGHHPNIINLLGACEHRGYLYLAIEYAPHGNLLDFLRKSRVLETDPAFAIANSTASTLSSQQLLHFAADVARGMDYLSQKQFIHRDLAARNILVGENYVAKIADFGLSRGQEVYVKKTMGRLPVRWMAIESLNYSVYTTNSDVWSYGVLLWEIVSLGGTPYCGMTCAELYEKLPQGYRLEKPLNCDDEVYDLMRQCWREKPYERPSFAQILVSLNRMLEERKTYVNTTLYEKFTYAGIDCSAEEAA
The molecule `COc1ccc(-c2nc(-c3ccncc3)nn2CCN(C(=O)Nc2ccccc2OC)C2CCCC2)cc1Cl` [Entry 84, N-(2-{5-[3-chloro-4-(methyloxy)phenyl]-3-pyridin-4-yl-1H-1,2,4-triazol-1-yl}ethyl)-N-cyclopentyl-N′-[2-(methyloxy)phenyl]urea] came in with an IC50 of at least 10 µM.

On to `COc1ccc(NC(=O)N(CCn2nc(-c3ccncc3)nc2-c2ccc(OC)c(Cl)c2)C2CCCC2)c(OC)c1` [Entry 85, N′-[2,4-bis(methyloxy)phenyl]-N-(2-{5-[3-chloro-4-(methyloxy)phenyl]-3-pyridin-4-yl-1H-1,2,4-triazol-1-yl}ethyl)-N-cyclopentylurea], for which the IC50 is at least 10 µM.

Consider `COc1ccc(-c2nc(-c3ccncc3)nn2CCN(C(=O)Nc2ccccc2C)C2CCCC2)cc1Cl` [Entry 86, N-(2-{5-[3-chloro-4-(methyloxy)phenyl]-3-pyridin-4-yl-1H-1,2,4-triazol-1-yl}ethyl)-N-cyclopentyl-N′-(2-methylphenyl)urea], for which the IC50 fell in the range of 1 to 10 µM.

The molecule `CCc1ccccc1NC(=O)N(CCn1nc(-c2ccncc2)nc1-c1ccc(OC)c(Cl)c1)C1CCCC1` [Entry 87, N-(2-{5-[3-chloro-4-(methyloxy)phenyl]-3-pyridin-4-yl-1H-1,2,4-triazol-1-yl}ethyl)-N-cyclopentyl-N′-(2-ethylphenyl)urea] had an IC50 of 1 to 10 µM.

Take `COc1ccc(-c2nc(-c3ccncc3)nn2CCN(C(=O)Nc2ccc(Cl)c(Cl)c2)C2CCCC2)cc1Cl` [Entry 88, N-(2-{5-[3-chloro-4-(methyloxy)phenyl]-3-pyridin-4-yl-1H-1,2,4-triazol-1-yl}ethyl)-N-cyclopentyl-N′-(3,4-dichlorophenyl)urea]: the 50% inhibitory concentration (IC50) is at least 10 µM.

The molecule `CCCCCCNC(=O)N(CCn1nc(-c2ccncc2)nc1-c1ccc(OC)c(Cl)c1)C1CCCC1` [Entry 89, N-(2-{5-[3-chloro-4-(methyloxy)phenyl]-3-pyridin-4-yl-1H-1,2,4-triazol-1-yl}ethyl)-N-cyclopentyl-N′-hexylurea] showed an IC50 of at least 10 µM.

Turning to `COc1ccc(-c2nc(-c3ccncc3)nn2CCN(C(=O)Nc2ccc(F)cc2)C2CCCC2)cc1Cl` [Entry 90, N-(2-{5-[3-chloro-4-(methyloxy)phenyl]-3-pyridin-4-yl-1H-1,2,4-triazol-1-yl}ethyl)-N-cyclopentyl-N′-(4-fluorophenyl)urea], the IC50 is at least 10 µM.

Molecule `COc1ccc(NC(=O)N(CCn2nc(-c3ccncc3)nc2-c2ccc(OC)c(Cl)c2)C2CCCC2)cc1` [Entry 91, N-(2-{5-[3-chloro-4-(methyloxy)phenyl]-3-pyridin-4-yl-1H-1,2,4-triazol-1-yl}ethyl)-N-cyclopentyl-N′-[4-(methyloxy)phenyl]urea] displayed an IC50 of at least 10 µM.

Turning to `COc1ccc(-c2nc(-c3ccncc3)nn2CCN(C(=O)NCc2ccccc2)C2CCCC2)cc1Cl` [Entry 92, N-(2-{5-[3-chloro-4-(methyloxy)phenyl]-3-pyridin-4-yl-1H-1,2,4-triazol-1-yl}ethyl)-N-cyclopentyl-N′-(phenylmethyl)urea], the IC50 fell in the range of 1 to 10 µM.

`COc1ccc(-c2nc(-c3ccncc3)nn2CCN(C(=O)Nc2cc(C(F)(F)F)cc(C(F)(F)F)c2)C2CCCC2)cc1Cl` [Entry 93, N′-[3,5-bis(trifluoromethyl)phenyl]-N-(2-{5-[3-chloro-4-(methyloxy)phenyl]-3-pyridin-4-yl-1H-1,2,4-triazol-1-yl}ethyl)-N-cyclopentylurea] registered an IC50 of at least 10 µM.

`COc1ccc(-c2nc(-c3ccncc3)nn2CCN(C(=O)Nc2cc(OC)c(OC)c(OC)c2)C2CCCC2)cc1Cl` [Entry 94, N-(2-{5-[3-chloro-4-(methyloxy)phenyl]-3-pyridin-4-yl-1H-1,2,4-triazol-1-yl}ethyl)-N-cyclopentyl-N′-[3,4,5-tris(methyloxy)phenyl]urea]: the IC50 was at least 10 µM.

The molecule `COc1ccc(-c2nc(-c3ccncc3)nn2CCN(C(=O)Nc2cccc(C(C)=O)c2)C2CCCC2)cc1Cl` [Entry 95, N′-(3-acetylphenyl)-N-(2-{5-[3-chloro-4-(methyloxy)phenyl]-3-pyridin-4-yl-1H-1,2,4-triazol-1-yl}ethyl)-N-cyclopentylurea] gave an IC50 of at least 10 µM.

`COc1ccc(-c2nc(-c3ccncc3)nn2CCN(C(=O)Nc2ccc(C)c(C)c2)C2CCCC2)cc1Cl` [Entry 96, N-(2-{5-[3-chloro-4-(methyloxy)phenyl]-3-pyridin-4-yl-1H-1,2,4-triazol-1-yl}ethyl)-N-cyclopentyl-N′-(3,4-dimethylphenyl)urea] showed an IC50 of at least 10 µM.

Take `COc1ccc(-c2nc(-c3ccncc3)nn2CCN(C(=O)Nc2ccc(Cl)cc2C(F)(F)F)C2CCCC2)cc1Cl` [Entry 97, N-(2-{5-[3-chloro-4-(methyloxy)phenyl]-3-pyridin-4-yl-1H-1,2,4-triazol-1-yl}ethyl)-N′-[4-chloro-2-(trifluoromethyl)phenyl]-N-cyclopentylurea]: the IC50 is 1 to 10 µM.

Turning to `COc1ccc(-c2nc(-c3ccncc3)nn2CCN(C(=O)Nc2ccc(SC)cc2)C2CCCC2)cc1Cl` [Entry 98, N-(2-{5-[3-chloro-4-(methyloxy)phenyl]-3-pyridin-4-yl-1H-1,2,4-triazol-1-yl}ethyl)-N-cyclopentyl-N′-[4-(methylthio)phenyl]urea], the IC50 was at least 10 µM.

Consider `COc1ccc(-c2nc(-c3ccncc3)nn2CCN(C(=O)Nc2ccc(C(C)=O)cc2)C2CCCC2)cc1Cl` [Entry 99, N′-(4-acetylphenyl)-N-(2-{5-[3-chloro-4-(methyloxy)phenyl]-3-pyridin-4-yl-1H-1,2,4-triazol-1-yl}ethyl)-N-cyclopentylurea], for which the IC50 was at least 10 µM.

Turning to `COc1ccc(-c2nc(-c3ccncc3)nn2CCN(C(=O)Nc2ccc(C(C)C)cc2)C2CCCC2)cc1Cl` [Entry 100, N-(2-{5-[3-chloro-4-(methyloxy)phenyl]-3-pyridin-4-yl-1H-1,2,4-triazol-1-yl}ethyl)-N-cyclopentyl-N′-[4-(1-methylethyl)phenyl]urea], the IC50 is at least 10 µM.

`COc1ccc(-c2nc(-c3ccncc3)nn2CCN(C(=O)Nc2ccc(C#N)cc2)C2CCCC2)cc1Cl` [Entry 101, N-(2-{5-[3-chloro-4-(methyloxy)phenyl]-3-pyridin-4-yl-1H-1,2,4-triazol-1-yl}ethyl)-N′-(4-cyanophenyl)-N-cyclopentylurea] had an IC50 of at least 10 µM.

For the molecule `COc1ccc(-c2nc(-c3ccncc3)nn2CCN(C(=O)Nc2ccccc2-c2ccccc2)C2CCCC2)cc1Cl` [Entry 102, N′-biphenyl-2-yl-N-(2-{5-[3-chloro-4-(methyloxy)phenyl]-3-pyridin-4-yl-1H-1,2,4-triazol-1-yl}ethyl)-N-cyclopentylurea], the IC50 was at least 10 µM.

In the case of `CCCCCNC(=O)N(CCn1nc(-c2ccncc2)nc1-c1ccc(OC)c(Cl)c1)C1CCCC1` [Entry 103, N-(2-{5-[3-chloro-4-(methyloxy)phenyl]-3-pyridin-4-yl-1H-1,2,4-triazol-1-yl}ethyl)-N-cyclopentyl-N′-pentylurea], the IC50 was at least 10 µM.

`CCCCCCCNC(=O)N(CCn1nc(-c2ccncc2)nc1-c1ccc(OC)c(Cl)c1)C1CCCC1` [Entry 104, N-(2-{5-[3-chloro-4-(methyloxy)phenyl]-3-pyridin-4-yl-1H-1,2,4-triazol-1-yl}ethyl)-N-cyclopentyl-N′-heptylurea] had an IC50 of at least 10 µM.

`COc1ccc(-c2nc(-c3ccncc3)nn2CCN(C(=O)Nc2cccc(Cl)c2)C2CCCC2)cc1Cl` [Entry 105, N-(2-{5-[3-chloro-4-(methyloxy)phenyl]-3-pyridin-4-yl-1H-1,2,4-triazol-1-yl}ethyl)-N′-(3-chlorophenyl)-N-cyclopentylurea] yielded an IC50 of at least 10 µM.

As to `COc1ccc(-c2nc(-c3ccncc3)nn2CCN(C(=O)Nc2cccc(C)c2)C2CCCC2)cc1Cl` [Entry 106, N-(2-{5-[3-chloro-4-(methyloxy)phenyl]-3-pyridin-4-yl-1H-1,2,4-triazol-1-yl}ethyl)-N-cyclopentyl-N′-(3-methylphenyl)urea], the IC50 was at least 10 µM.

For the molecule `COc1ccc(-c2nc(-c3ccncc3)nn2CCN(C(=O)NC(C)(C)C)C2CCCC2)cc1Cl` [Entry 107, N-(2-{5-[3-chloro-4-(methyloxy)phenyl]-3-pyridin-4-yl-1H-1,2,4-triazol-1-yl}ethyl)-N-cyclopentyl-N′-(1,1-dimethylethyl)urea], the IC50 was at least 10 µM.

For the molecule `COc1ccc(-c2nc(-c3ccncc3)nn2CCN(C(=O)NC(C)C)C2CCCC2)cc1Cl` [Entry 108, N-(2-{5-[3-chloro-4-(methyloxy)phenyl]-3-pyridin-4-yl-1H-1,2,4-triazol-1-yl}ethyl)-N-cyclopentyl-N′-(1-methylethyl)urea], the 50% inhibitory concentration (IC50) is at least 10 µM.

`CCNC(=O)N(CCn1nc(-c2ccncc2)nc1-c1ccc(OC)c(Cl)c1)C1CCCC1` [Entry 109, N-(2-{5-[3-chloro-4-(methyloxy)phenyl]-3-pyridin-4-yl-1H-1,2,4-triazol-1-yl}ethyl)-N-cyclopentyl-N′-ethylurea] yielded an IC50 of at least 10 µM.

The molecule `CCCNC(=O)N(CCn1nc(-c2ccncc2)nc1-c1ccc(OC)c(Cl)c1)C1CCCC1` [Entry 110, N-(2-{5-[3-chloro-4-(methyloxy)phenyl]-3-pyridin-4-yl-1H-1,2,4-triazol-1-yl}ethyl)-N-cyclopentyl-N′-propylurea] showed an IC50 of at least 10 µM.

As for `CCOc1ccc(NC(=O)N(CCn2nc(-c3ccncc3)nc2-c2ccc(OC)c(Cl)c2)C2CCCC2)cc1` [Entry 111, N-(2-{5-[3-chloro-4-(methyloxy)phenyl]-3-pyridin-4-yl-1H-1,2,4-triazol-1-yl}ethyl)-N-cyclopentyl-N′-[4-(ethyloxy)phenyl]urea], the IC50 was in the range of 1 to 10 µM.

Take `CCc1ccc(NC(=O)N(CCn2nc(-c3ccncc3)nc2-c2ccc(OC)c(Cl)c2)C2CCCC2)cc1` [Entry 112, N-(2-{5-[3-chloro-4-(methyloxy)phenyl]-3-pyridin-4-yl-1H-1,2,4-triazol-1-yl}ethyl)-N-cyclopentyl-N′-(4-ethylphenyl)urea]: the IC50 is at least 10 µM.
